Experimental data taken from patent US20210222168A1, “METHODS FOR REACTIVATING GENES ON THE INACTIVE X CHROMOSOME” (THE GENERAL HOSPITAL CORPORATION, priority 2017, published 2021).
“Also recorded” adds a separate entry of the source.

Assays:
[1] = system: Mecp2:Luciferase knock-in reporter on the Xi; test: Luciferase assay in Xi-Mecp2-Luc MEFs; format: cell-based, mouse; conditions: for Xi-Mecp2 upregulation / reactivation in combination with the Xist ASO: 20 nM Xist ASO + small molecule inhibitor (EPZ6438 1 uM, VX680 1 uM, Aza 0.5 uM); for upregulation of MECP2 by other Xist gapmers: 20 nM ASO + 0.5 μM Aza (FIG. 7B-D)
Experimental: (§1) Mecp2-Luc fibroblast cell lines were a generous gift from Dr. Bedalov. The clonal hybrid (cast/mus) cell line (EY.T4) was previously developed in the lab (Yildirim E et al. (2011) X-chromosome hyperactivation in mammals via nonlinear relationships between chromatin states and transcription. Nat Struct Mol Biol 19:56-61). Passage number was kept below 25, no further verification of cell line identity was performed. They were maintained in DMEM-glutamax (Gibco), supplemented with fetal bovine serum (FBS, 10%), non-essential amino acids (1×, Gibco), HEPES buffer (25 mM, Gibco), penicillin/streptomycin (1×, Gibco) and 2-Mercaptoethanol (Sigma). Transfection was performed with 20 nM ASO assisted by Lipofectamine LTX with Plus reagent (Thermo Fisher).
Xa-Mecp2-Luc clone cell line was used in parallel for providing a scaling magnitude for normalizing Xi-driven luciferase signals, Cells were grown in a 12 well plate, trypsinized, counted, washed with PBS and dispensed in 20 ul of 1× cell culture lysis reagent (Promega). The mixture was vortexed and incubated for 5 min and then transferred to a zebra 96 well plate. The plate was read using a Perkin Elmer MicroBeta2 LumiJET that automatically adds 100 μl of Luciferase Assay Reagent (Promega) 2 sec before measuring the produced light for 10 sec. The corrected counts per second where divided by the number of cells for generating a luciferase-reactivation score per cell. For the initiating screen ASOs were used at 20 nM (transfected with lipofectamine) in combination with 0.5 uM Aza for 3 days. The reverse screen used 20 nM Xist ASO (transfected with lipofectamine) in combination with the small molecule inhibitors at different concentrations (see Table S-II) for 3 days.
We asked whether an ASO could also be developed for Xi-reactivation. We screened a small ASO library against various targets of potential interest, including Xist RNA and an antisense transcript to Mecp2 (Mecp2-as) (FIG. 1A, FIG. 6, Table S-I). In designing the ASOs, we chose phosporothioate backbone and locked nucleic acid (LNA™) chemistry (Wahlestedt C et al. Potent and nontoxic antisense oligonucleotides containing locked nucleic acids. Proc Natl Acad Sci USA. 2000; 97:5633-5638) for its in vivo and in vitro stability, and increased affinity and selectivity for RNA targets. All were designed as gapmers, with unmodified deoxyribonucleosides in the center flanked by 5′ and 3′ terminal locked nucleosides, to direct RNAse-H-mediated cleavage of the target transcript. […] The luciferase reporter provides a highly sensitive enzymatic detection method with a large dynamic range. […] Epigenetics Chromatin. […] Science. 2015; 349: aab2276-12), we examined the efficacy of each ASO in the presence of 0.5 uM decitabine (“Aza”; 5-aza-2′-deoxycytidine) for three days.

Xi-Mecp2-Luc MEF cells [2] = format: cell-based
Experimental: as §1
Imaging was done with a Nikon Eclipse TE2000-E equipped with a HamamatsuCCD camera. Image analysis was done with OpenLAB software (Agilent).

[3] = system: X-linked gene expression relative to autosomal expression; test: Aza three pulse treatment, transcriptomic analysis of brain and liver; format: in vivo, mouse
From the text: All libraries were sequenced with Illumina HiSeq, generating 28-54 millions paired-end 50 nucleotide reads per sample. RNA-seq reads were aligned allele-specifically to 129S1/SvJm (mus) and CAST/Eih (cas) genome using TopHat2 (Kim D, et al. (2013) TopHat2: Accurate alignment of transcriptomes in the presence of insertions, deletions and gene fusions. Genome Biol 14:R36). After removal of PCR duplicates, all unique reads mapped to the exons of each gene were quantified by Homer (Heinz S, et al. (2010) Simple combinations of lineage-determining transcription factors prime cis-regulatory elements required for macrophage and B cell identities. Mol Cell 38:576-589). […] To compare the fold change of autosomal and X-linked genes, only genes with FPKM≥1 were considered (Yang L, Kirby J E, Sunwoo H, Lee J T (2016) Female mice lacking Xist RNA show partial dosage compensation and survive to term. Genes Dev 30:1747-1760). […] For allele-specific analysis, we defined % mus as the percentage of mus-specific exonic reads in all allele-specific (mus-specific+cas-specific) exonic reads of each transcript. For classification of X-linked genes, we defined expressed genes as genes having non-zero FPKM in all samples. Allele-assessable genes were defined as active genes that have more than 12 allele-specific reads in all samples (Pinter S F and Colognori D (2015) Allelic imbalance is a prevalent and tissue-specific feature of the mouse transcriptome. Genetics 200:537-549). It has been described that a small fraction of genes overlap with incorrectly annotated SNPs and produce unexpected allelic skewing (Pinter S F and Colognori D (2015) Allelic imbalance is a prevalent and tissue-specific feature of the mouse transcriptome. Genetics 200:537-549; Calabrese J M et al. (2012) Site-specific silencing of regulatory elements as a mechanism of X inactivation. Cell 151:951-963). These genes were identified by analyzing a published RNA-seq dataset of tail-tip fibroblasts (TTF) from pure Mus castaneous background. […]

[4] = Aza three pulse treatment, long-term health, lifespan and body weight
Experimental: Aza was administered to the Xist2lox, Nestin-Cre F2 generation, by IP injection at 5 weeks old. Three injections 100 ul per 10 g of 0.033 mg/ml in sterile saline (or just sterile saline as control) were given over the course of a week (each injection separated by 2 days). Both Xist2lox/2lox and Xist Δ/Δ were injected and were randomly assigned to the treatment group. No specific randomization protocol was followed. RNA from the brain and liver were harvested (as described before) at 7 weeks of age (2 weeks after the first injection).

Xi-Mecp2-Luc MEF cells [5] = conditions: stated in parentheses only; target and source not given; cited from earlier work
[6] = cited from earlier work

## Nc1ncn([C@H]2C[C@H](O)[C@@H](CO)O2)c(=O)n1 [Aza, 5-aza-2′-deoxycytidine]
[1]; 5 days
  Mecp2:luciferase upregulation, single treatments compared with the combination: remained significantly lower
Xi-Mecp2-Luc MEF cells [2]; 1.0, 2.5 uM Aza, 3-day treatment
  cell death at higher Aza concentrations: increased cell death
Xi-Mecp2-Luc MEF cells [2]; FIG. 2C
  tolerable Aza concentrations in cell culture: 0.5 µM
[3]; three IP Aza pulses over one week at 5 weeks of age, harvested two weeks later, liver (Xist not deleted)
  X- and autosomal gene expression in liver: remained balanced
[3]; three IP Aza pulses over one week combined with Xist deletion, brain two weeks later
  X-linked gene expression relative to autosomal expression in XistΔ/Δ brain: highly significant positive changes in X-linked gene expression relative to autosomal expression; also recorded: X-upregulation evident in the brain two weeks later; also recorded: sufficient to induce Xi reactivation after two weeks in the brain
[3]; three IP Aza pulses over one week, brain two weeks later
  X-to-autosomal gene expression in Xist2lox/2lox (wild-type) brain: did not result in X-to-autosomal gene imbalance
[4]; after short-term Aza pulse treatment
  survival: all mice advanced to 1-2 year of age
[4]; mouse, in vivo
  body weight, Aza versus saline treatment groups: did not introduce significant differences
  health and lifespan: no measurable differences in health and lifespan
Xi-Mecp2-Luc MEF cells [5]
  IC50: 500 nM
[6]; cited: Chabot et al., rabbits and dogs
  blood-brain-barrier crossing: can cross the blood-brain-barrier
[6]; plasma
  half-life (t1/2) in plasma: < 1 h

## CCN(c1cc(-c2ccc(CN3CCOCC3)cc2)cc(C(=O)NCc2c(C)cc(C)[nH]c2=O)c1C)C1CCOCC1 [EPZ6438, N-((4,6-dimethyl-2-oxo-1,2-dihydropyridin-3-yl)methyl)-5-(ethyl(tetrahyd-ro-2H-pyran-4-yl)amino)-4-methyl-4′-(morpholinomethyl)-[1,1′-biphenyl]-3-carboxamide]
[1]; 3 days
  Xi-Mecp2 upregulation / reactivation in combination with the Xist ASO: varying degrees of upregulation; also recorded: larger degree of reactivation than previously seen with any other compound

## Cc1cc(Nc2cc(N3CCN(C)CC3)nc(Sc3ccc(NC(=O)C4CC4)cc3)n2)n[nH]1 [VX680]
[1]; 3 days
  Xi-Mecp2 upregulation / reactivation in combination with the Xist ASO: varying degrees of upregulation; also recorded: larger degree of reactivation than previously seen with any other compound

## Scr ASO: negative control ASO, scrambled sequence; AACACGTCTATACGC, SEQ ID NO: 1 (all phosphorothioate, sugars by position and methylation of C not given here; LNA gapmer with DNA center and LNA wings)
[1]; 3 days, ASO 20 nM or Aza 0.5 uM alone
  luminescent counts per second (LCPS) / Mecp2:luciferase reactivation, single treatment: neither the control Scr ASO (20 nM) nor Xist ASO (20 nM gapmer 1) resulted in measurable luminescent counts per second

## Xist ASO 2: LNA gapmer ASO targeting Xist exon 1; AGTAGCTCGGTGGAT, SEQ ID NO: 3 (all phosphorothioate, sugars by position and methylation of C not given here; LNA gapmer with DNA center and LNA wings)
[1]
  upregulation of MECP2 by other Xist gapmers: found to also upregulate MECP2

## Xist ASO 3: LNA gapmer ASO targeting Xist exon 1; TGAGTCTTGAGGAGAA, SEQ ID NO: 4 (all phosphorothioate, sugars by position and methylation of C not given here; LNA gapmer with DNA center and LNA wings)
[1]
  upregulation of MECP2 by other Xist gapmers: found to also upregulate MECP2
